Laboratory results taken from patent publication US11167015B2, “Arginine and its use as a T cell modulator” (INSTITUTE FOR RESEARCH IN BIOMEDICINE, priority 2016, dated 2021).

Legend:
B16.OVA melanoma = experiment: Tumor experiment: in vivo priming of T cells, oral L-arginine; parameters: species or system C57BL/6 mice; details: mice fed with L-arginine 1.5 mg/g body weight daily vs PBS
Description: B16-OVA melanoma cells were cultured and injected into Wt C57BL/6 mice as described above. Five clays post injection, when tumors were very small, mice were γ-irradiated (5 Gy) and 24 hours later they received 4×10^5 OT-I cells intravenously (i.v.). The clay after mice were immunized intraperitoneally (i.p.) with […] peptide (OVA257-264) in Inject Alum Adjuvant (Thermo Fisher Scientific). L-Arg (1.5 g/Kg body weight) or PBS, as control, was daily orally administrated, starting one clay before T cell transfer and until the end of the experiment. The size of tumors was measured in a blinded fashion using calipers.

72 h-activated T cells = experiment: Glucose consumption assay; type: cell-based, human; details: L-arginine supplementation, 24 h in fresh medium
Description: FIG. 3. L-arginine globally influences metabolism of activated human T cells. […] Shown are only metabolites with a Log 2 fc>1 and an adjusted p value of <0.05; n=12 from two donors. Log 2 fold change between 0 and >+2 for L-Orn and L-Arg exemplarily indicated as “high”. (B) Differential analysis of the glycolytic pathway between naïve CD4^+ T cells cultured in L-Arg medium or Ctrl medium, 96 h after activation. Log 2 fold changes of proteins and metabolites are color-coded. […] 3-P-Glycerate and 2-P-Glycerate could not be distinguished as they have the same mass. (C) 72 h-activated T cells were plated in fresh medium and glucose consumption was determined enzymatically after 24 h; n=9 from three donors. (D) Seahorse experiment performed with activated (96 h) T cells from one donor. Oligomycin was injected after 56 min, FCCP after 96 min, and antimycin (to inhibit the respiratory chain) after 136 min. Data are representative of 5 independent experiments with different donors. (E,F) Relative oxygen consumption rate (OCR) (E) and relative spare respiratory capacity (SRC) (F) of activated (96 h) T cells; n=12 from three donors. ****p<0.0001 (Student's t-test).
The amount of glucose in media was determined using the Glucose (GO) Assay Kit from Sigma. Consumption was calculated as the difference between glucose content in reference medium (co-incubated medium without cells) and cell supernatants.

human naïve CD4+ T cells = experiment: kinetic metabolome analysis of activated T cells; type: cell-based; details: L-arginine in medium increased 4-fold (1 mM standard), all time points
Description: (A) Human naïve CD4^+ T cells were activated in normal medium or in L-Arg medium. Nitric oxide formation was measured using DAF-FM diacetate at different time points.
Naïve CD4^+ T cells were either analyzed directly after isolation or at different time points after activation with CD3 and CD28 antibodies. Cells were washed twice in 96-well plates with 75 mM ammonium carbonate at pH 7.4 and snap frozen in liquid nitrogen. Metabolites were extracted three times with hot (>70° C.) 70% ethanol. Extracts were analyzed by flow injection—time of flight mass spectrometry on an Agilent 6550 QTOF instrument operated in the negative mode, as described previously (Fuhrer et al., 2011). Typically 5,000-12,000 ions with distinct mass-to-charge (m/z) ratio could be identified in each batch of samples. Ions were putatively annotated by matching their measured mass to that of the compounds listed by the KEGG database for Homo sapiens, allowing a tolerance of 0.001 Da. Only deprotonated ions (without adducts) were considered in the analysis. In case of multiple matching, such as in the case of structural isomers, all candidates were retained.

mouse CD8+ OT-I T cells = experiment: Survival of activated OT-I T cells in vitro after IL-2 withdrawal; type: cell-based; details: L-arginine-supplemented medium 4 days
Source text: FIG. 7. CD8+ T cells with increased L-arginine levels display improved anti-tumor activity in vivo. (A) Survival of activated mouse CD8+OT-I T cells (4 d) after IL-2 withdrawal. Data points represent the difference between the percentage of living T cells from cultures performed in L-Arg medium or Ctrl medium; n=11. (B) CD90.1+CD45.1/2+ and CD90.1+CD45.1+ naïve CD8+ OT-I T cells were activated for 4 days in Ctrl medium or L-Arg medium, respectively. Equal numbers of the congenically marked activated OT-I cells were co-transferred into Cd3e−/− mouse and the number of living T cells was measured in pooled spleen and lymph nodes at the indicated time points; n=3 at each time point. (C) Naïve CD8+ OT-I T cells were activated with CD3+CD28 antibodies in L-Arg medium or control (Ctrl) medium. Five days after activation, the percentage of Tcm-like cells (CD44hi, CD62L+) was measured by flow cytometry; n=15. (D) Naïve OT-I CD8+ T cells were activated in L-Arg medium or Ctrl medium and IFN-γ was quantified in culture supernatants after 5 days; n=15. (E) Same as in (D) but T cells were re-activated on day 5 day with PMA/Ionomycin; n=15. (F, G) B16.OVA melanoma cells were injected into C57BL/6 mice and tumors were allowed to grow for 10 days. […] Tumor burden (F) and survival (G) were assessed over time. […] In (G) *p<0.05 as determined by log-rank test comparison between curves. […]

For `N=C(N)NCCC[C@H](N)C(=O)O` [L-arginine], the “anti-tumor response of OT-I T cells primed in vivo” value (B16.OVA melanoma) was “superior in mediating an anti-tumor response”, the glucose consumption (72 h-activated T cells) was “consumed less glucose” and the “Intracellular arginine levels compared to controls” value (human naïve CD4+ T cells) was 1.5-2.5 fold. For the same compound, the “Intracellular ornithine levels compared to controls” value (human naïve CD4+ T cells) was 1.5-2.5 fold and the “survival capacity of OT-I T cells in vitro” value (mouse CD8+ OT-I T cells) was “higher survival capacity”.
